# Tested on: rats
# Test: Preventative Adjuvant Edema (acute anti-inflammatory effect in rats)
# Type: in vivo, Male Sprague Dawley rats
# Conditions: 25 mg/kg, p.o.; given immediately before, 24 and 48 hours after Freund's complete adjuvant; hind paw edema volume day 0 to day 3
# Protocol: This test is a primary screen for anti-inflammatory drugs.
# Male Sprague Dawley rats (180-200 g) are used. The animals have free access to water but food is withdrawn 18 hours before testing.
# Freund's complete adjuvant is prepared by suspending 5 mg killed and dried Mycobacterium butyricum (Difco) in 1 mL mineral oil. The test compounds are dissolved in distilled water or suspended in 0.5% Tween 80 in distilled water according to their solubility. For primary screening all drugs are administered by gastric lavage at the arbitrary dosage of 25 mg/kg, p.o. in a volume of 0.5 mL/100 g body weight to groups of 10 animals.
# The method is essentially that described by Wax et al, J. Pharmacol. Exp. Ther., 192, 166-171 (1975). Groups of rats are injected intradermally in the left hand paw with 0.1 mL of Freund's complete adjuvant. The test compound or vehicle is administered immediately before the adjuvant, 24 hours and 48 hours after the adjuvant (day 0, 1 and 2). The injected hind paw volume is measured before the injection of adjuvant and 24 hours after the last drug administration (day 3) by means of a plethysmometer (Buxco Electronics Inc.). The difference between the hind paw volume on day 0 and day 3 represents the edema volume. Etodolac (25 mg/kg, p.o.) is included as a positive control.
# The mean edema volume (expressed as mL±SEM) is calculated for each group and the percentage protection conferred by the drug is calculated: [formula] where c is the mean edema volume for the untreated controls and t is the mean edema volume for the drug treated group.
row,Compound,% Inhibition
1,"CC[C@]1(CC(=O)O)CC[C@@H](CC=NOC)c2c1[nH]c1c(C)cccc21 (relative stereo) [Example 2, cis-1-Ethyl-2,3,4,9-tetrahydro-4-[2-(methoxyimino)ethyl]-8-methyl-1H-carbazole-1-acetic Acid]",45%
2,"CC[C@]1(CC(=O)O)CC[C@@H](CC(C)=O)c2c1[nH]c1c(C)cccc21 (relative stereo) [Example 3, cis-1-Ethyl-2,3,4,9-tetrahydro-8-methyl-4-(2-oxopropyl)-1H-carbazole-1-acetic Acid]",52%
3,"CC[C@]1(CC(=O)O)CC[C@@H](CC#N)c2c1[nH]c1c(C)cccc21 (relative stereo) [Example 4, cis-4-(Cyanomethyl)-1-ethyl-2,3,4,9-tetrahydro-8-methyl-1H-carbazole-1-acetic Acid]",52%
4,"cis-1-Ethyl-2,3,4,9-tetrahydro-4-[2-(hydroxyimino)ethyl]-8-methyl-1H-carbazole-1-acetic Acid [Example 1]",59%

# Reference: patent publication US4927842A, “2,3,4,9-tetrahydro-1H-carbazole acetic acid derivatives, composition and use as anti-inflammatories” (American Home Products Corporation, priority 1989, dated 1990)
